The data set is described as follows: Stability of FDG solution against radiolysis: Radio Chemical Purity (RCP) by TLC after storage. The format is physicochemical. On the procedure: In all experiments, the RCP was determined using a standard Thin Layer Chromatography (TLC) method using 10 cm silica-coated glass plates supplied by Alltech (Deerfield, Ill.). A 95:5 mixture of acetonitrile and water was used as a mobile phase and a TLC plate scanner supplied by Bioscan (Washington, D.C.) was used to measure the radioactivity distribution on the plate. In most cases, the sample size was less than 1 μl.
[…] It should be noted, however, that most of the radiolysis takes place in the first 3–6 hours due to the fact that the radioactivity concentration decreases exponentially over time with a half-life of 1.82 hours. After 6 hours, only about 10% of the radioactivity remains and is probably not sufficient to cause any significant decomposition of the product.
In this experiment, the final product was prepared with an initial activity concentration of 10.8 GBq/ml (292 mCi/ml). […] Samples were kept in tightly sealed vials identical to those used for storage and delivery of FDG to customers. […]
It was added in an amount calculated to result, after dilution with water, in about a 0.05% concentration in the final product.
Samples 1, 2, and 3, each of 2 ml, were taken from the final product. To see if storage conditions affected the results, samples 1 and 2 were stored in vials while sample 3 was stored in a syringe identical to those that are used to deliver FDG to users. […]

Consider [^18F] 2-Fluoro-2-Deoxy-D-glucose [FDG], for which the “RCP after decline as a result of radiolysis” value (over a period of less than 12 hours, high activity concentration) is “less than 90%”. The “RCP at the end of production” value (typical value, end of production) is 98–100%.

Values taken from patent US7018614B2, “Stabilization of radiopharmaceuticals labeled with 18-F” (Eastern Isotopes, Inc., priority 2002, dated 2006).
